The target in test [1] is T1, ruKATP-1 (Rattus norvegicus, UniProt Q63664).
T1 construct: The expression plasmid (pCMV6b) carrying a full-length ruKATP-1 coding cDNA was transfected into HEK 239 cells; expressed in transfected cells; host or cells: HEK 239 (sic) cells, plasmid pCMV6b, Lipofectamine
T1 sequence (Q63664 1-424): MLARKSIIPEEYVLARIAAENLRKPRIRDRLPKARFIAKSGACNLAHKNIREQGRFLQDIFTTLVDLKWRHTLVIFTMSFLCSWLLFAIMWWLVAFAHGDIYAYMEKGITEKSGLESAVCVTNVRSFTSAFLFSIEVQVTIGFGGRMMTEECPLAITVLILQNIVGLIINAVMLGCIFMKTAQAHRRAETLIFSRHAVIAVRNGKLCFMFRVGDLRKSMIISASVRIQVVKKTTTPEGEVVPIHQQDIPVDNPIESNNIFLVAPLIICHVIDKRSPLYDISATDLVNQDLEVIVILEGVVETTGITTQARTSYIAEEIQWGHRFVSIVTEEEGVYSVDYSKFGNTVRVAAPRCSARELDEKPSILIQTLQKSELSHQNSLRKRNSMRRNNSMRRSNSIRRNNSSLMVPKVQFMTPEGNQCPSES
The test is described as follows: Single-channel analysis of HEK 239 cells having ruKATP-1 expressed (inside-out mode). In kind it is cell-based. The settings on record: for uKATP-1 channel activity (state of channel): inside-out mode. On the procedure:
[…] cells were cultured in minimum essential Eagle's medium supplemented with 10% of horse serum. The expression plasmid (pCMV6b) carrying a full-length ruKATP-1 coding cDNA was transfected into […] cells with use of Lipofectamine to prepare transformed HEK 293 cells. The transformed cells produced in this. manner were subjected to single channel analysis, with the results being shown in FIGS. 8A and 8B.
FIG. 7 illustrates effects of ATP on the uKATP-1 channel activity as observed in the inside-out mode.

The target of test [2] is T1, ruKATP-1. The test is described as follows: Electrophysiological analysis of Xenopus oocytes injected with ruKATP-1 cRNA. In kind it is cell-based. As for the experimental part:
A 20 ng quantity of cRNA synthesized in vitro from plasmid pGEM11Z containing a full-length ruKATP-1 cDNA with the RNA polymerase after being linearized through treatment with a restriction enzyme Not1 was injected into Xenopus oocytes, followed by electrophysiological analysis 2 or 3 days later. (see FIG. 7). As is illustrated in FIGS. 7A and 7B, there was observed a K^+ electric current showing weak inward rectification. The K^+ electric current was suppressed by adding Ba^2+ in the exracellular fluid.

Take `[Mg+2]` [Mg^2+]: the “outward electric current flowing through the channel” value at ruKATP-1 [1] (intracellular Mg2+, transformed HEK cells) is listed as “suppressed”.

For `[Ba+2]` [Ba^2+], the “inward rectification (inward current) of oocytes injected with ruKATP-1 cRNA” value at ruKATP-1 [2] (300 μM Ba2+ added to the extracellular fluid, 45 mM [K+] extracellular fluid) is recorded as “blocked”. Also, the “K+ electric current showing weak inward rectification” value at ruKATP-1 [2] (Ba2+ added in the extracellular fluid, concentration not given) is on record as “suppressed”. In the case of `Nc1ncnc2c1ncn2[C@@H]1O[C@H](COP(=O)(O)OP(=O)(O)OP(=O)(O)O)[C@@H](O)[C@H]1O` [ATP], the “uKATP-1 channel activity (state of channel)” value on ruKATP-1 [1] (1 μM of ATP added inside the cellular membrane) is “open”; on ruKATP-1 [1] (addition of ATP), “closed completely”.
